Data published in patent US7829589B2, “Sulfonamide compounds and uses thereof” (Elixir Pharmaceuticals, Inc., priority 2005, dated 2010).

These compounds were tested against GHS-R (Homo sapiens, UniProt Q92847) (assay: GHS-R antagonist activity (Ki) in a cell based assay).
Outline: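 Transfected COS-7 cells were labelled 24 h with [^3H]-myo-inositol and preincubated 30 min at 37 °C in HEPES buffer pH 7.4 with 10 mM LiCl, optionally with 1 U/ml adenosine deaminase. Compound was applied for 45 min at 37 °C. [^3H]-inositol phosphates were extracted with perchloric acid and isolated by anion-exchange resin.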

Sequence of GHS-R (Q92847 whole entry, species assumed): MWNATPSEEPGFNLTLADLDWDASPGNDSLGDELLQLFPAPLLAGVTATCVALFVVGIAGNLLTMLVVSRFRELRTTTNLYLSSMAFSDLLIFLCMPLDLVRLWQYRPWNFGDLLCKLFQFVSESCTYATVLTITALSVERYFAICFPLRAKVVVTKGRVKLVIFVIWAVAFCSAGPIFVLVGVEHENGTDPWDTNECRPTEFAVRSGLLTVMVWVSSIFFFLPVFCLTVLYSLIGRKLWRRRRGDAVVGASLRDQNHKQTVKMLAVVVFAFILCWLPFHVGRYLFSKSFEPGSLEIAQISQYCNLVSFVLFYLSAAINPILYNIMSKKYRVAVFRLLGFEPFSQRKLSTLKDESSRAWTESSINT

Ki [nM]	SMILES
< 100	CCN(CC)CCCS(=O)(=O)NC(C)(C)c1nc(Cc2ccc(Br)cc2)no1 [Compound 154, 3-Diethylamino-propane-1-sulfonic acid {1-[3-(4-bromo-benzyl)-[1,2,4]oxadiazol-5-yl]-1-methyl-ethyl}-amide]
100 to 500	CCN(CC)CCCS(=O)(=O)N[C@H](CCc1ccccc1)c1nc(CCc2ccccc2Cl)no1 [Compound 101, 3-Diethylamino-propane-1-sulfonic acid ((R)-1-{3-[2-(2-chloro-phenyl)-ethyl]-[1,2,4]oxadiazol-5-yl}-3-phenyl-propyl)-amide]
< 100	CCN(CC)CCCS(=O)(=O)N[C@H](CCc1ccccc1)c1nc(-c2ccc(F)cc2F)n[nH]1 [Compound 96, 3-Diethylamino-propane-1-sulfonic acid {(R)-1-[5-(2,4-difluoro-phenyl)-2H-[1,2,4]triazol-3-yl]-3-phenyl-propyl}-amide]
100 to 500	CCN(CC)CCCS(=O)(=O)N1CCC[C@@H]1c1nc(-c2ccc(OC)cc2)no1 [Compound 144, (R)-Diethyl-(3-{2-[3-(4-methoxy-phenyl)-[1,2,4]oxadiazol-5-yl]-pyrrolidine-1-sulfonyl}-propyl)-amine]
100 to 500	CCN(CC)CCCS(=O)(=O)N1CCC[C@H]1c1nc(Cc2ccc(Br)cc2)no1 [Compound 142, (S)-(3-{2-[3-(4-Bromo-benzyl)-[1,2,4]oxadiazol-5-yl]-pyrrolidine-1-sulfonyl}-propyl)-diethyl-amine]
< 100	CCN(CC)CCCS(=O)(=O)N[C@H](CCc1ccccc1)c1nc(-c2ccc(OC(F)(F)F)cc2)n[nH]1 [Compound 106, 3-Diethylamino-propane-1-sulfonic acid {(R)-3-phenyl-1-[5-(4-trifluoromethoxy-phenyl)-2H-[1,2,4]triazol-3-yl]-propyl}-amide]
< 100	CCN(CC)CCCS(=O)(=O)N[C@H](CCc1ccccc1)c1nc(-c2ccc(OC)nc2)n[nH]1 [Compound 138, 3-Diethylamino-propane-1-sulfonic acid {(R)-1-[5-(6-methoxy-pyridin-3-yl)-2H-[1,2,4]triazol-3-yl]-3-phenyl-propyl}-amide]
100 to 500	CCN(CC)CCCS(=O)(=O)NC(C)(C)c1nc(-c2ccc(OC)cc2)no1 [Compound 155, 3-Diethylamino-propane-1-sulfonic acid {1-[3-(4-methoxy-phenyl)-[1,2,4]oxadiazol-5-yl]-1-methyl-ethyl}-amide]
100 to 500	CCN(CC)CCCS(=O)(=O)N[C@H](CC(N)=O)c1nc(Cc2ccc(Br)cc2)no1 [Compound 102, (R)-3-[3-(4-Bromo-benzyl)-[1,2,4]oxadiazol-5-yl]-3-(3-diethylamino-propane-1-sulfonylamino)-propionamide]
< 100	CCN(CC)CCCS(=O)(=O)N[C@H](CCc1ccccc1)c1nc(Cc2cccc(OC)c2)no1 [Compound 109, 3-Diethylamino-propane-1-sulfonic acid {(R)-1-[3-(3-methoxy-benzyl)-[1,2,4]oxadiazol-5-yl]-3-phenyl-propyl}-amide]

More lines, now with the values behind:

SMILES	Ki [nM]
CCN(CC)CCS(=O)(=O)N[C@H](CCc1ccccc1)c1nc(-c2ccc(Br)cc2C)no1 [Compound 85, 2-Diethylamino-ethanesulfonic acid {(R)-1-[3-(4-bromo-2-methyl-phenyl)-[1,2,4]oxadiazol-5-yl]-3-phenyl-propyl}-amide]	≥ 1000
CCN(CC)CCCS(=O)(=O)N[C@H](CCc1ccccc1)c1nc(-c2ccc3ncsc3c2)n[nH]1 [Compound 44, 3-Diethylamino-propane-1-sulfonic acid [(R)-1-(5-benzothiazol-6-yl-2H-[1,2,4]triazol-3-yl)-3-phenyl-propyl]-amide]	< 100
CCN(CC)CCS(=O)(=O)N[C@H](CCc1ccccc1)c1nc(-c2ccc(F)cc2)no1 [Compound 89, 2-Diethylamino-ethanesulfonic acid {(R)-1-[3-(4-fluoro-phenyl)-[1,2,4]oxadiazol-5-yl]-3-phenyl-propyl}-amide]	< 100
CCN(CC)CCCS(=O)(=O)N[C@H](CCc1ccccc1)c1nc(Cc2ccc(OC)c(OC)c2)n[nH]1 [Compound 32, 3-Diethylamino-propane-1-sulfonic acid {(R)-1-[5-(3,4-dimethoxy-benzyl)-2H-[1,2,4]triazol-3-yl]-3-phenyl-propyl}-amide]	< 100
CCN(CC)CCCS(=O)(=O)N[C@H](CCc1ccccc1)c1nc(Cc2ccccc2Br)no1 [Compound 75, 3-Diethylamino-propane-1-sulfonic acid {(R)-1-[3-(2-bromo-benzyl)-[1,2,4]oxadiazol-5-yl]-3-phenyl-propyl}-amide]	< 100
CCN(CC)CCCS(=O)(=O)N[C@H](CCc1ccccc1)c1nc(-c2cnccc2C)no1 [Compound 83, 3-Diethylamino-propane-1-sulfonic acid {(R)-1-[3-(4-methyl-pyridin-3-yl)-[1,2,4]oxadiazol-5-yl]-3-phenyl-propyl}-amide]	100 to 500
CCN(CC)CCS(=O)(=O)N[C@H](CCc1ccccc1)c1nc(-c2cccnc2Cl)no1 [Compound 54, 2-Diethylamino-ethanesulfonic acid {(R)-1-[3-(2-chloro-pyridin-3-yl)-[1,2,4]oxadiazol-5-yl]-3-phenyl-propyl}-amide]	100 to 500
CCN(CC)CCS(=O)(=O)N[C@H](CCc1ccccc1)c1nc(CCOC)no1 [Compound 78, 2-Diethylamino-ethanesulfonic acid {(R)-1-[3-(2-methoxy-ethyl)-[1,2,4]oxadiazol-5-yl]-3-phenyl-propyl}-amide]	500 to 1000
CCN(CC)CCCS(=O)(=O)N[C@H](CCc1ccccc1)c1nc(-c2c(C)cccc2Cl)no1 [Compound 10, 3-Diethylamino-propane-1-sulfonic acid {(R)-1-[3-(2-chloro-6-methyl-phenyl)-[1,2,4]oxadiazol-5-yl]-3-phenyl-propyl}-amide]	100 to 500
CCN(CC)CCCS(=O)(=O)N[C@H](CCc1ccccc1)c1nc(-c2ccsc2)n[nH]1 [Compound 7, 3-Diethylamino-propane-1 sulfonic acid [(R)-3-phenyl-1-(5-thiophen-3-yl-2H-[1,2,4]triazol-3-yl)-propyl]-amide]	< 100
CCN(CC)CCCS(=O)(=O)N[C@H](CCc1ccccc1)c1nc(-c2cccnc2Cl)no1 [Compound 31, 3-Diethylamino-propane-1-sulfonic acid {(R)-1-[3-(2-chloro-pyridin-3-yl)-[1,2,4]oxadiazol-5-yl]-3-phenyl-propyl}-amide]	< 100
CCN(CC)CCCS(=O)(=O)N[C@H](CCc1ccccc1)c1nc(Cc2ccc(F)c(F)c2)n[nH]1 [Compound 56, 3-Diethylamino-propane-1-sulfonic acid {(R)-1-[5-(3,4-difluoro-benzyl)-2H-[1,2,4]triazol-3-yl]-3-phenyl-propyl}-amide]	100 to 500
CCN(CC)CCS(=O)(=O)N[C@H](CCc1ccccc1)c1nc(-c2c(Cl)cccc2Cl)no1 [Compound 18, 2-Diethylamino-ethanesulfonic acid {(R)-1-[3-(2,6-dichloro-phenyl)-[1,2,4]oxadiazol-5-yl]-3-phenyl-propyl}-amide]	100 to 500
